Reference: PubChem BioAssay AID248 (DTP/NCI, 2004)
Toxic doses and inconclusive results are not listed. No stated cut-off is given here; in the data, active means T/C of 150% or more; inactive means T/C below 125%.

Test system: L1210 leukemia ip in BDF1 mice, survival T/C
Assay: NCI In Vivo Anticancer Drug Screen. Data for tumor model L1210 Leukemia (intraperitoneal) in B6D2F1 (BDF1) mice
Conditions: endpoint: mean survival time, higher = longer survival
Procedure, shortened: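 Each compound was tested against a transplantable tumor grown in mice. The endpoint was survival, with treated animals benchmarked against vehicle controls as a simple ratio.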

[1] = dose: 100.0 mg/kg/injection, schedule: Q01DX009 (ip), vehicle: Klucel (hydroxypropylcellulose) (HPC)
[2] = dose: 200.0 mg/kg/injection, schedule: Q01DX009 (ip), vehicle: Klucel (hydroxypropylcellulose) (HPC)
[3] = dose: 25.0 mg/kg/injection, schedule: Q01DX009 (ip), vehicle: saline with Tween-80
[4] = dose: 25.0 mg/kg/injection, schedule: Q04DX003 (ip), vehicle: saline with Tween-80
[5] = dose: 50.0 mg/kg/injection, schedule: Q01DX009 (ip), vehicle: saline with Tween-80
[6] = dose: 50.0 mg/kg/injection, schedule: Q04DX003 (ip), vehicle: saline with Tween-80
[7] = dose: 100.0 mg/kg/injection, schedule: Q04DX003 (ip), vehicle: saline with Tween-80
[8] = dose: 25.0 mg/kg/injection, schedule: Q01DX009 (ip), vehicle: saline
[9] = dose: 200.0 mg/kg/injection, schedule: Q04DX003 (ip), vehicle: saline with Tween-80
[10] = dose: 100.0 mg/kg/injection, schedule: Q01DX001 (ip), vehicle: saline with Tween-80
[11] = dose: 200.0 mg/kg/injection, schedule: Q01DX001 (ip), vehicle: saline with Tween-80
[12] = dose: 100.0 mg/kg/injection, schedule: Q04DX002 (ip), vehicle: saline
[13] = dose: 200.0 mg/kg/injection, schedule: Q04DX002 (ip), vehicle: saline
[14] = dose: 100.0 mg/kg/injection, schedule: Q01DX001 (ip), vehicle: saline
[15] = dose: 200.0 mg/kg/injection, schedule: Q01DX001 (ip), vehicle: saline
[16] = dose: 400.0 mg/kg/injection, schedule: Q01DX001 (ip), vehicle: saline

Measured: T/C

CCCCCC#CC(=O)O
inactive: [1] 105 % of control | dose: 100.0 mg/kg/injection, schedule: Q04DX003 (ip), vehicle: Klucel (hydroxypropylcellulose) (HPC) 98 % of control | [2] 106 % of control | dose: 200.0 mg/kg/injection, schedule: Q04DX003 (ip), vehicle: Klucel (hydroxypropylcellulose) (HPC) 98 % of control | dose: 400.0 mg/kg/injection, schedule: Q01DX009 (ip), vehicle: Klucel (hydroxypropylcellulose) (HPC) 90 % of control | dose: 400.0 mg/kg/injection, schedule: Q04DX003 (ip), vehicle: Klucel (hydroxypropylcellulose) (HPC) 109 % of control

c1ccc2c(c1)ccc1cc3c(ccc4ccccc43)cc12
inactive: dose: 25.0 mg/kg/injection, schedule: Q01DX001 (ip), vehicle: Klucel (hydroxypropylcellulose) (HPC) 106 % of control | dose: 50.0 mg/kg/injection, schedule: Q01DX001 (ip), vehicle: Klucel (hydroxypropylcellulose) (HPC) 109 % of control | dose: 100.0 mg/kg/injection, schedule: Q01DX001 (ip), vehicle: Klucel (hydroxypropylcellulose) (HPC) 108 % of control | dose: 200.0 mg/kg/injection, schedule: Q01DX001 (ip), vehicle: Klucel (hydroxypropylcellulose) (HPC) 108 % of control | dose: 400.0 mg/kg/injection, schedule: Q01DX001 (ip), vehicle: Klucel (hydroxypropylcellulose) (HPC) 109 % of control

Cc1c2cnccc2c(C)c2c1c1ccccc1n2C(C)C
inactive: dose: 37.5 mg/kg/injection, schedule: Q04DX003 (ip), vehicle: saline 100 % of control | dose: 62.5 mg/kg/injection, schedule: Q01DX009 (ip), vehicle: saline with Tween-80 110 % of control | dose: 75.0 mg/kg/injection, schedule: Q04DX003 (ip), vehicle: saline 101 % of control | dose: 150.0 mg/kg/injection, schedule: Q04DX003 (ip), vehicle: saline 104 % of control | dose: 300.0 mg/kg/injection, schedule: Q04DX003 (ip), vehicle: saline 124 % of control

CS(=O)(=O)c1ccc(Sc2ccc(S(C)(=O)=O)cc2)cc1
inactive: dose: 12.5 mg/kg/injection, schedule: Q01DX009 (ip), vehicle: saline with Tween-80 105 % of control | [3] 96 % of control | [4] 98 % of control | [5] 92 % of control | [6] 94 % of control | [7] 93 % of control

C[N+](C)(C)CCCC1C2CCC(C2)C1C[N+](C)(C)C (stereo unspecified)
inactive: dose: 12.0 mg/kg/injection, schedule: Q01DX009 (ip), vehicle: saline 103 % of control | dose: 12.5 mg/kg/injection, schedule: Q04DX003 (ip), vehicle: saline 106 % of control | [8] 104 % of control | dose: 25.0 mg/kg/injection, schedule: Q04DX003 (ip), vehicle: saline 98 % of control

COc1ccccc1/C=C\C=O
inactive: dose: 100.0 mg/kg/injection, schedule: Q01DX001 (ip), vehicle: carboxymethylcellulose (CMC) 103 % of control | dose: 200.0 mg/kg/injection, schedule: Q01DX001 (ip), vehicle: carboxymethylcellulose (CMC) 100 % of control | dose: 400.0 mg/kg/injection, schedule: Q01DX001 (ip), vehicle: carboxymethylcellulose (CMC) 97 % of control

OCC1C2CCC(CC2)C1CO (stereo unspecified)
inactive: dose: 12.5 mg/kg/injection, schedule: Q01DX009 (ip), vehicle: saline 102 % of control | dose: 12.5 mg/kg/injection, schedule: Q04DX003 (ip), vehicle: saline with Tween-80 97 % of control | [8] 106 % of control | [4] 94 % of control | [6] 102 % of control | [7] 96 % of control | [9] 93 % of control | dose: 400.0 mg/kg/injection, schedule: Q04DX003 (ip), vehicle: saline with Tween-80 102 % of control

O=C(O)CCc1nc2ccccc2c(=O)[nH]1
inactive: dose: 50.0 mg/kg/injection, schedule: Q01DX009 (ip), vehicle: Klucel (hydroxypropylcellulose) (HPC) 100 % of control | [1] 100 % of control | [2] 100 % of control

CCCCCCCCCCCC(=O)OCC1(C)COC(c2ccccc2)=N1 (stereo unspecified)
inactive: [10] 97 % of control | [11] 104 % of control | dose: 400.0 mg/kg/injection, schedule: Q01DX001 (ip), vehicle: saline with Tween-80 104 % of control

CC1CN=C(c2ccc(O)cc2O)S1 (stereo unspecified)
inactive: [12] 93 % of control | [13] 104 % of control | dose: 400.0 mg/kg/injection, schedule: Q04DX002 (ip), vehicle: saline 96 % of control

CCCCCCOc1ccc(N=[N+]([O-])c2ccc(OCCCCCC)cc2)cc1
inactive: dose: 75.0 mg/kg/injection, schedule: Q01DX001 (ip), vehicle: other 91 % of control | dose: 150.0 mg/kg/injection, schedule: Q01DX001 (ip), vehicle: other 91 % of control | dose: 300.0 mg/kg/injection, schedule: Q01DX001 (ip), vehicle: other 87 % of control

NC(=O)c1[nH]c(CCCc2ccccc2)nc1N
inactive: [5] 102 % of control | [6] 103 % of control | [10] 110 % of control | dose: 100.0 mg/kg/injection, schedule: Q01DX009 (ip), vehicle: saline with Tween-80 90 % of control | [7] 109 % of control | [11] 100 % of control | dose: 200.0 mg/kg/injection, schedule: Q01DX009 (ip), vehicle: saline with Tween-80 102 % of control | [9] 100 % of control

O=C(NCCF)NC1C(O)OC(CO)C(O)C1O (stereo unspecified)
inactive: [14] 102 % of control | [15] 101 % of control | [16] 98 % of control

Cc1cc[n+]([O-])nc1N(C)N
inactive: dose: 50.0 mg/kg/injection, schedule: Q04DX002 (ip), vehicle: saline 101 % of control | [12] 104 % of control | [13] 96 % of control

Cn1cnc(N)c1C(=N)[Se]
inactive: dose: 6.25 mg/kg/injection, schedule: Q01DX009 (ip), vehicle: water 86 % of control | dose: 12.5 mg/kg/injection, schedule: Q04DX003 (ip), vehicle: water 108 % of control | dose: 25.0 mg/kg/injection, schedule: Q04DX003 (ip), vehicle: water 95 % of control

O=C(O)C(=C/c1ccccc1)/C(=C\c1ccccc1)C(=O)O
inactive: [14] 103 % of control | dose: 100.0 mg/kg/injection, schedule: Q01DX009 (ip), vehicle: saline 89 % of control | [15] 105 % of control | dose: 200.0 mg/kg/injection, schedule: Q01DX009 (ip), vehicle: saline 93 % of control | [16] 97 % of control | dose: 400.0 mg/kg/injection, schedule: Q01DX009 (ip), vehicle: saline 90 % of control

C=CSCCCCCCCC
inactive: dose: 100.0 mg/kg/injection, schedule: Q04DX003 (ip), vehicle: other 103 % of control | dose: 200.0 mg/kg/injection, schedule: Q04DX003 (ip), vehicle: other 97 % of control | dose: 400.0 mg/kg/injection, schedule: Q04DX003 (ip), vehicle: other 97 % of control

COc1cc(/C=C(/NC(=O)c2ccccc2)C(=O)O)ccc1O
inactive: [14] 94 % of control | dose: 100.0 mg/kg/injection, schedule: Q04DX003 (ip), vehicle: saline 96 % of control | [15] 89 % of control | dose: 200.0 mg/kg/injection, schedule: Q04DX003 (ip), vehicle: saline 97 % of control | [16] 96 % of control | dose: 400.0 mg/kg/injection, schedule: Q04DX003 (ip), vehicle: saline 88 % of control

CC(=O)OCC1OC(SC2CCCCC2Br)C(OC(C)=O)C(OC(C)=O)C1OC(C)=O (stereo unspecified)
inactive: [14] 101 % of control | [15] 104 % of control | [16] 106 % of control

CCCCCCC(=O)OCc1ccc(-c2ccccc2)cc1
inactive: dose: 75.0 mg/kg/injection, schedule: Q01DX001 (ip), vehicle: saline 90 % of control | dose: 150.0 mg/kg/injection, schedule: Q01DX001 (ip), vehicle: saline 87 % of control | dose: 300.0 mg/kg/injection, schedule: Q01DX001 (ip), vehicle: saline 92 % of control

C=CCN1C(=O)C2C3C=CC(C3)C2C1=O (stereo unspecified)
inactive: dose: 6.0 mg/kg/injection, schedule: Q04DX002 (ip), vehicle: Klucel (hydroxypropylcellulose) (HPC) 114 % of control | dose: 25.0 mg/kg/injection, schedule: Q04DX002 (ip), vehicle: Klucel (hydroxypropylcellulose) (HPC) 114 % of control | dose: 50.0 mg/kg/injection, schedule: Q04DX002 (ip), vehicle: Klucel (hydroxypropylcellulose) (HPC) 117 % of control | dose: 100.0 mg/kg/injection, schedule: Q04DX002 (ip), vehicle: Klucel (hydroxypropylcellulose) (HPC) 97 % of control

COc1cc2cc[n+](C)c(Cc3ccccc3)c2cc1OC
inactive: [3] 111 % of control | [4] 105 % of control | [5] 107 % of control | [6] 103 % of control | [7] 96 % of control
